ChEMBL document CHEMBL5113434, “Discovery of novel Thieno[2,3-d]imidazole derivatives as agonists of human STING for antitumor immunotherapy using systemic administration” (Eur J Med Chem, 2022)
The source made the active and inactive calls. The rule behind the calls is not given here.

What was measured:
[1] = molecular target: T1, Stimulator of interferon genes protein (Homo sapiens, UniProt Q86WV6); test: Activation of STING pathway in human THP1-Dual cells assessed as increase in TBK1 phosphorylation at 0.01 to 1 uM measured for 4 hrs immunoblotting analysis; format: cell-based; conditions: filed as activator, dose 0.01-1 µM
Target sequence in this assay (Q86WV6 whole entry): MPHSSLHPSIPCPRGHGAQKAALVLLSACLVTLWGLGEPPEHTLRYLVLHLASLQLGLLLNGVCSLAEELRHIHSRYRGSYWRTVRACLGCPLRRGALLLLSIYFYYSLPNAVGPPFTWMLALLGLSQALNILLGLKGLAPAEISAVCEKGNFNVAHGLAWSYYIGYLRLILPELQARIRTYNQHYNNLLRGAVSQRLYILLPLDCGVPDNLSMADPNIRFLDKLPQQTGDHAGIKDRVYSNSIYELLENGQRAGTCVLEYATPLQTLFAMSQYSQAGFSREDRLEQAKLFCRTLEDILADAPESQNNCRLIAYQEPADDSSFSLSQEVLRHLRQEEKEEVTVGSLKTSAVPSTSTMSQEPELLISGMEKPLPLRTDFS

[2] = molecular target: T1, Stimulator of interferon genes protein; test: Activation of STING pathway in human 293T-Dual hSTING-R232 cells assessed as increase in ISG expression level measured for 24 hrs by SEAP reporter based Quanti-luc assay; format: cell-based; conditions: filed as activator, dose 0.01-1 µM, DDE = dose-dependent effect
Target sequence in this assay (Q86WV6 whole entry): as above

[3] = molecular target: T2, Stimulator of interferon genes protein (Mus musculus) (UniProt Q3TBT3); test: Activation of STING pathway in mouse RAW-Lucia ISG cells assessed as increase in ISG expression level at 12.5 to 50 uM measured for 24 hrs by Quanti-luc reagent based assay; format: cell-based; conditions: filed as activator, dose 12.5-50 µM
T2 sequence (whole entry): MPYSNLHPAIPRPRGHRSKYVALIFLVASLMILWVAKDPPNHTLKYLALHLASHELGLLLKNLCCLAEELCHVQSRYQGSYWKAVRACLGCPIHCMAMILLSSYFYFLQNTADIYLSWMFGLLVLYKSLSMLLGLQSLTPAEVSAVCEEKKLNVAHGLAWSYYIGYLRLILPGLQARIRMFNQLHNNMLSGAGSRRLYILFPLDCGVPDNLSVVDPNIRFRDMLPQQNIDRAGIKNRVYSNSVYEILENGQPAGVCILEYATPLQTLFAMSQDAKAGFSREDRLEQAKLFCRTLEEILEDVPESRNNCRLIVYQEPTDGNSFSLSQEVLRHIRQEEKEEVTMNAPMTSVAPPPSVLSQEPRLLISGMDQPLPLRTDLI

[4] = molecular target: T2, Stimulator of interferon genes protein (Mus musculus); test: Agonist activity at STING in mouse RAW-Lucia ISG cells assessed as fold change in ISG activation at 50 uM incubated for 24 hrs by Quanti-luc reagent based assay relative to control; format: cell-based; conditions: filed as agonist
[5] = Observed clearance in BALB/c mouse at 1 mg/kg, iv measured up to 24 hrs by UPLC-MS/MS analysis; format: ADME, organism-based; conditions: in vivo
CT26 [6] = test: Antitumor immunity against mouse CT26 cells implanted in BALB/c mouse assessed as increase in IP-10 level in plasma at 10 mg/kg, iv administered on day 1,4,7 for 20 days and measured 6 hrs post last dose; format: functional, organism-based; conditions: time 20.0 day
[7] = molecular target: T1, Stimulator of interferon genes protein; test: Agonist activity at human STING in human THP1-Dual cells assessed as activation of ISG signaling pathway measured after 24 hrs by Quanti-luc reagent based assay; format: cell-based; conditions: filed as agonist, dose 0.0001-1 µM, DDE = dose-dependent effect
Target sequence in this assay (Q86WV6 whole entry): as the sequence (Q86WV6 whole entry) above

[8] = Observed AUC infinity in BALB/c mouse at 1 mg/kg, iv measured up to 24 hrs by UPLC-MS/MS analysis; format: ADME, organism-based; design: dose 1 mg/kg, time < 24 hrs, route iv; conditions: in vivo
4T1 [9] = test: Antitumour activity against mouse 4T1 cells implanted in BALB/c mouse assessed as tumor growth inhibition at 10 mg/kg, iv administered on day 1,4,7 and measured for 20 days relative to control; format: functional; conditions: 4T1, 480 h, time 20 day, read-out: TGI
[10] = molecular target: T1, Stimulator of interferon genes protein; test: Activation of STING pathway in human 293T-Dual hSTING-H232 cells assessed as increase in ISG expression level measured for 24 hrs by SEAP reporter based Quanti-luc assay; format: cell-based; conditions: filed as activator, dose 0.01-1 µM, DDE = dose-dependent effect
Target sequence in this assay (Q86WV6 whole entry): as the sequence (Q86WV6 whole entry) above

Homo sapiens = organism: Homo sapiens; test: Binding affinity to human STING H232 mutant assessed as thermal stability by measuring change in melting temperature by differential scanning fluorimetry; conditions: filed as agonist
[11] = test system: Stimulator of interferon genes protein (Homo sapiens), Q86WV6 [UNDEFINED MUTATION]; test: Binding affinity to human STING R232 mutant assessed as thermal stability by measuring change in melting temperature by differential scanning fluorimetry; conditions: filed as agonist
Sequence of Stimulator of interferon genes protein (Homo sapiens), Q86WV6 [UNDEFINED MUTATION] (Q86WV6 whole entry, looked up, change not shown): as the sequence (Q86WV6 whole entry) above

[12] = Half life in BALB/c mouse at 1 mg/kg, iv measured up to 24 hrs by UPLC-MS/MS analysis; format: ADME, organism-based; conditions: in vivo
4T1 [13] = test: Antitumour activity against mouse 4T1 cells implanted in BALB/c mouse assessed as tumor growth inhibition at 20 mg/kg, iv administered on day 1,4,7 and measured for 20 days relative to control; format: functional; conditions: 4T1, 480 h, time 20 day, read-out: TGI
[14] = molecular target: T1, Stimulator of interferon genes protein; test: Activation of STING pathway in human THP1-Dual cells assessed as increase in IFNbeta expression level at 0.01 to 1 uM measured for 24 hrs by chemiluminescence based analysis; format: cell-based; conditions: filed as activator, dose 0.01-1 µM
Target sequence in this assay (Q86WV6 whole entry): as the sequence (Q86WV6 whole entry) above

[15] = Toxicity in BALB/c mouse xenografted with 4T1 cells assessed as body weight loss at 10 to 20 mg/kg, iv administered on day 1,4,7 and measured for 20 days; format: organism-based; conditions: in vivo, 480 h, dose 10-20 mg/kg, time 20 day
[16] = molecular target: T1, Stimulator of interferon genes protein; test: Activation of STING pathway in human 293T-Dual hSTING-H232 cells assessed as increase in IFNbeta expression level measured for 24 hrs by SEAP reporter based Quanti-luc assay; format: cell-based; conditions: filed as activator, dose 0.01-1 µM, DDE = dose-dependent effect
Target sequence in this assay (Q86WV6 whole entry): as the sequence (Q86WV6 whole entry) above

[17] = molecular target: T1, Stimulator of interferon genes protein; test: Activation of STING pathway in human 293T-Dual hSTING-R232 cells assessed as increase in IFNbeta expression level measured for 24 hrs by SEAP reporter based Quanti-luc assay; format: cell-based; conditions: filed as activator, dose 0.01-1 µM, DDE = dose-dependent effect
[18] = molecular target: T1, Stimulator of interferon genes protein; test: Activation of STING pathway in human THP1-Dual cells assessed as increase in IP-10 expression level at 0.01 to 1 uM measured for 24 hrs by chemiluminescence based analysis; format: cell-based; conditions: filed as activator, dose 0.01-1 µM
CT26 [19] = test: Antitumour activity against mouse CT26 cells implanted in BALB/c mouse assessed as suppression of tumor growth at 10 mg/kg, iv administered on day 1,4,7 and measured for 20 days; format: functional, organism-based; conditions: time 20.0 day
CT26 [20] = test: Antitumor immunity against mouse CT26 cells implanted in BALB/c mouse assessed as increase in IFN-beta level in plasma at 10 mg/kg, iv administered on day 1,4,7 for 20 days and measured 6 hrs post last dose; format: functional, organism-based; conditions: time 20.0 day
Mus musculus = organism: Mus musculus; test: Binding affinity to mouse STING R231 mutant assessed as thermal stability by measuring change in melting temperature by differential scanning fluorimetry; conditions: filed as agonist
[21] = molecular target: T1, Stimulator of interferon genes protein; test: Agonist activity at human STING in human THP1-Dual cells assessed as activation of NF-kappB signaling pathway measured after 24 hrs by Quanti-luc reagent based assay; format: cell-based; conditions: filed as agonist, dose 0.0001-1 µM, DDE = dose-dependent effect
[22] = molecular target: T1, Stimulator of interferon genes protein; test: Agonist activity at STING in human THP1-Dual cells assessed as ISG activation incubated for 24 hrs by Quanti-luc reagent based assay; format: cell-based
[23] = test system: Stimulator of interferon genes protein (Homo sapiens), Q86WV6 [R293Q]; test: Binding affinity to human STING 293Q mutant assessed as thermal stability by measuring change in melting temperature by differential scanning fluorimetry; conditions: filed as agonist
Sequence of Stimulator of interferon genes protein (Homo sapiens), Q86WV6 [R293Q] (Q86WV6 whole entry R293Q): as the sequence (Q86WV6 whole entry) above, with R293Q counted along it

[24] = molecular target: T1, Stimulator of interferon genes protein; test: Binding affinity to His6-tagged human wild type STING R232 variant by homogeneous time-resolved fluorescence assay
Target sequence in this assay (Q86WV6 whole entry, looked up, change not shown): as the sequence (Q86WV6 whole entry) above

[25] = AUClast in BALB/c mouse at 1 mg/kg, iv measured up to 24 hrs by UPLC-MS/MS analysis; format: ADME, organism-based; design: time < 24 hrs, dose 1 mg/kg, route iv; conditions: in vivo
[26] = molecular target: T1, Stimulator of interferon genes protein; test: Activation of STING pathway in human THP1-Dual cells assessed as increase in IRF3 phosphorylation at 0.01 to 1 uM measured for 4 hrs by immunoblotting analysis; format: cell-based; conditions: filed as activator, dose 0.01-1 µM
CT26 [27] = test: Antitumor immunity against mouse CT26 cells implanted in BALB/c mouse assessed as increase in IP-10 level in plasma at 5 mg/kg, IT administered on day 1,4,7 for 20 days and measured 6 hrs post last dose; format: functional, organism-based; conditions: time 20.0 day
[28] = Observed volume of distribution at steady state in BALB/c mouse at 1 mg/kg, iv measured up to 24 hrs by UPLC-MS/MS analysis; format: ADME, organism-based; conditions: in vivo, read-out: Vdss
[29] = molecular target: T1, Stimulator of interferon genes protein; test: Agonist activity at STING in human THP1-Dual cells assessed as fold change in ISG activation at 10 uM incubated for 24 hrs by Quanti-luc reagent based assay relative to control; format: cell-based; conditions: filed as agonist
[30] = test system: Stimulator of interferon genes protein (Homo sapiens), Q86WV6 [G230A,R293Q]; test: Binding affinity to human STING AQ mutant assessed as thermal stability by measuring change in melting temperature by differential scanning fluorimetry; conditions: filed as agonist
Sequence of Stimulator of interferon genes protein (Homo sapiens), Q86WV6 [G230A,R293Q] (Q86WV6 whole entry G230A/R293Q): as the sequence (Q86WV6 whole entry) above, with G230A, R293Q counted along it

CT26 [31] = test: Antitumor immunity against mouse CT26 cells implanted in BALB/c mouse assessed as increase in IFN-beta level in plasma at 5 mg/kg, IT administered on day 1,4,7 for 20 days and measured 6 hrs post last dose; format: functional, organism-based; conditions: time 20.0 day
CT26 [32] = test: Antitumour activity against mouse CT26 cells implanted in BALB/c mouse assessed as suppression of tumor growth at 5 mg/kg, IT administered on day 1,4,7 and measured for 20 days; format: functional, organism-based; conditions: time 20.0 day
[33] = molecular target: T3, Stimulator of interferon genes protein (Mus musculus, UniProt Q3TBT3); test: Agonist activity at STING in mouse RAW-Lucia ISG cells assessed as ISG activation incubated for 24 hrs by Quanti-luc reagent based assay; format: cell-based
T3 sequence (Q3TBT3 whole entry): T2 sequence (whole entry)

SMILES: CCn1nc(C)cc1C(=O)Nc1nc2cc(C(N)=O)sc2n1C/C=C/Cn1c(NC(=O)c2cc(C)nn2CC)nc2cc(C(N)=O)cc(OCCCN3CCOCC3)c21
- Activity [1]: Active
- Activity [2]: Dde
- Activity [3]: Active
- fold change (FC) [4]: 20.7
- clearance [5]: 1.58 L/h/kg
- Activity (CT26 [6]): Active
- Activity [7]: Dde
- AUC(0-inf) [8]: 0.711 µg·h/mL
- inhibition in vivo at 10 mg/kg (4T1 [9]): 61%
- Activity [10]: Dde
- ΔTm (Homo sapiens): 12.8 °C
- ΔTm [11]: 6.6 °C
- half-life [12]: 1.62 h
- inhibition in vivo at 20 mg/kg (4T1 [13]): 74%
- Activity [14]: Active
- Activity [15]: Non-Toxic
- Activity [16]: Dde
- Activity [17]: Dde
- Activity [18]: Active
- Activity (CT26 [19]): Active
- Activity (CT26 [20]): Active
- ΔTm (Mus musculus): 13.3 °C
- Activity [21]: Dde
- EC50 [22]: 1.2 nM
- ΔTm [23]: 11.1 °C
- IC50 [24]: 0.6 nM
- AUC(0-t) at 24 h [25]: 0.701 µg·h/mL
- Activity [26]: Active
- Activity (CT26 [27]): Active
- Vd [28]: 1.52 L/kg
- fold change (FC) [29]: 145
- ΔTm [30]: 12.4 °C
- Activity (CT26 [31]): Active
- Activity (CT26 [32]): Active
- EC50 [33]: 32800 nM
